Laboratory results: patent US10940139B2, “Compounds that interact with the Ras superfamily for the treatment of cancers, inflammatory diseases, rasopathies, and fibrotic disease” (Shy Therapeutics LLC, priority 2017, dated 2021)
Like-named read-outs stand apart in the source and are kept apart here.

Experiments:
Assay in all cases: Ras GTP binding domain inhibition assay (labeled GTP)
KRas wild type = KRas wild type (Homo sapiens (Human), UniProt P01116)
Outline: (§1)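 His-tagged KRas protein (3-10 μg/ml) was captured overnight at 4° C on nickel-coated wells in 50 mM Tris pH 7.5, 1 mM MgCl2, 1 mM DTT. Bound labeled GTP was read by fluorescence after washing.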

KRas G12C mutant = KRas G12C mutant (Homo sapiens (Human), UniProt P01116, G12C)
KRas G12C mutant, sequence (P01116-2 other isoform, or with tags, fused parts or gaps G12C): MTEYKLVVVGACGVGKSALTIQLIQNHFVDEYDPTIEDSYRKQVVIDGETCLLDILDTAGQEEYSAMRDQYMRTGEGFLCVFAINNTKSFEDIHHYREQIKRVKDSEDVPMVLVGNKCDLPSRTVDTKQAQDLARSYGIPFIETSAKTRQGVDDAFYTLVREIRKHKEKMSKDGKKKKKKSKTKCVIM
Outline: as §1

[1] = target: KRas G12D/Q61H double mutant (Homo sapiens (Human), UniProt P01116, G12D/Q61H)
KRas G12D/Q61H double mutant, sequence (P01116-2 other isoform, or with tags, fused parts or gaps G12D/Q61H): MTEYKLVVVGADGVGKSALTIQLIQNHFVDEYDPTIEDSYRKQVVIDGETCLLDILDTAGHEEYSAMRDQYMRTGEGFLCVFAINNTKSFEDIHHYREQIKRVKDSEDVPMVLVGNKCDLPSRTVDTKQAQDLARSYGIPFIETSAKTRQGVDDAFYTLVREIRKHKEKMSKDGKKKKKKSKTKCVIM
Outline: as §1

[2] = target: KRas G12C/Q61H double mutant (Homo sapiens (Human), UniProt P01116, G12C/Q61H); conditions: 20 μM compound
KRas G12C/Q61H double mutant, sequence (P01116-2 other isoform, or with tags, fused parts or gaps G12C/Q61H): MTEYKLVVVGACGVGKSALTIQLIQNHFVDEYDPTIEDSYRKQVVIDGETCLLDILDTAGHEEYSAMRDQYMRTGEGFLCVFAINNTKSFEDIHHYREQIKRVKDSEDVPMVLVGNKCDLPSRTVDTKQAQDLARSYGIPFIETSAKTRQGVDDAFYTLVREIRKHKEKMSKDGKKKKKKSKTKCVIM
Outline: as §1

KRas Q61H mutant = KRas Q61H mutant (Homo sapiens (Human), UniProt P01116, Q61H); conditions: 20 μM compound
KRas Q61H mutant, sequence (P01116-2 other isoform, or with tags, fused parts or gaps Q61H): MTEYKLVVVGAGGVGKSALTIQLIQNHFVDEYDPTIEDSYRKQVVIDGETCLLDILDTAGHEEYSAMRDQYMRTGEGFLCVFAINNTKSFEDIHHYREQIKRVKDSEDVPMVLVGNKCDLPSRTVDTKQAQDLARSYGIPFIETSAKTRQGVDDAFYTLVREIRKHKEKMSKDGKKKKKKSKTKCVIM
Outline: as §1

KRas G12D mutant protein = KRas G12D mutant protein (Homo sapiens (Human), UniProt P01116, G12D)
KRas G12D mutant protein, sequence (P01116-2 other isoform, or with tags, fused parts or gaps G12D): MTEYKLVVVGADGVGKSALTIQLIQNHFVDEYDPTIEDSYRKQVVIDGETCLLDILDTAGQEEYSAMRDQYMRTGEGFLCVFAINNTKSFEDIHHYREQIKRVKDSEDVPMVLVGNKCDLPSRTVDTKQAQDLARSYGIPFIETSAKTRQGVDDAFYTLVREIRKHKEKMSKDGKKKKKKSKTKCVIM

[3] = 20 μM compound, KRas wild type, read-out: % Inhibition at 20 μM of K-Ras mutant and wild-type protein, KRas wild type
[4] = 20 μM compound, KRas G12C, read-out: % Inhibition at 20 μM of K-Ras mutant and wild-type protein, KRas G12C
[5] = 20 μM compound, KRas G12D/Q61H double mutant, read-out: % Inhibition at 20 μM of K-Ras mutant and wild-type protein, KRas G12D Q61H
[6] = KRas G12C/Q61H double mutant, read-out: % Inhibition at 20 μM of K-Ras mutant and wild-type protein, KRas G12C Q61H
[7] = KRas Q61H, read-out: % Inhibition at 20 μM of K-Ras mutant and wild-type protein, KRas Q61H
[8] = 20 μM compound, KRas G12D, read-out: % Inhibition at 20 μM of K-Ras mutant and wild-type protein, KRas G12D
[9] = 20 μM compound, read-out: % Inhibition at 20 μM KRas wild type
[10] = 20 μM compound, read-out: % Inhibition at 20 μM KRas G12C
[11] = 20 μM compound, read-out: % Inhibition at 20 μM KRas G12D Q61H
[12] = read-out: % Inhibition at 20 μM KRas G12C Q61H
[13] = read-out: % Inhibition at 20 μM KRas Q61H
[14] = 20 μM compound, read-out: % Inhibition at 20 μM KRas G12D
[15] = 20 μM, read-out: KRas wild type, % Inh.
[16] = 20 μM, read-out: KRas G12C % Inh.
[17] = 20 μM, read-out: KRas G12D Q61H % Inh.
[18] = 20 μM, read-out: KRas G12D % Inh.

KRas wild type, sequence (P01116-2 other isoform, or with tags, fused parts or gaps): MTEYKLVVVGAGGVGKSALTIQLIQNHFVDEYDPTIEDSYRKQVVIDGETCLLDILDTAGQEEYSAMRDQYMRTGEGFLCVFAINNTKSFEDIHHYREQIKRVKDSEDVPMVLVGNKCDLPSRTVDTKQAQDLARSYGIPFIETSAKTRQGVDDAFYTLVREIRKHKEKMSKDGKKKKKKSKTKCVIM

Compound	inhibition at 20 µM (KRas wild type; [3])	inhibition at 20 µM (KRas G12C mutant; [4])	inhibition at 20 µM [1, 5]	inhibition at 20 µM [2, 6]	inhibition at 20 µM (KRas Q61H mutant; [7])	inhibition at 20 µM (KRas G12D mutant protein; [8])	inhibition at 20 µM (KRas wild type; [9])	inhibition at 20 µM (KRas G12C mutant; [10])	inhibition at 20 µM [1, 11]	inhibition at 20 µM [2, 12]	inhibition at 20 µM (KRas Q61H mutant; [13])	inhibition at 20 µM (KRas G12D mutant protein; [14])	further results
O=C(CCn1ccnc1)Nc1nc(-c2ccccn2)nc2sccc12 [drawing 2889]	–	–	–	–	–	–	51 to 75%	25 to 50%	51 to 75%	51 to 75%	76 to 100%	76 to 100%	–
COc1nc(-c2cn(C)cn2)nc2sc(-c3ccncc3)c(-c3ccccc3)c12 [drawing 3531]	1 to 25%	25 to 50%	25 to 50%	1 to 25%	25 to 50%	25 to 50%	–	–	–	–	–	–	–
Cc1cnc(-c2ccccn2)nc1NC(=O)Cc1ccc2cnccc2c1 [drawing 2856]	–	–	–	–	–	–	51 to 75%	25 to 50%	51 to 75%	51 to 75%	51 to 75%	51 to 75%	–
Oc1nc(-c2ccccn2)nc2c(C3CC3)csc12 [drawing 3518]	25 to 50%	25 to 50%	25 to 50%	1 to 25%	25 to 50%	51 to 75%	–	–	–	–	–	–	–
COCC(C)Nc1nc(-c2ccccn2)nc2sc(-c3ccncc3)c(-c3ccccc3)c12 (centres unmarked) [drawing 3541]	25 to 50%	51 to 75%	51 to 75%	25 to 50%	51 to 75%	25 to 50%	–	–	–	–	–	–	–
Cc1cnc(-c2ccccn2)nc1NC(=O)C1CCCc2cc(C#N)ccc21 (centres unmarked) [drawing 2827]	–	–	–	–	–	–	51 to 75%	25 to 50%	51 to 75%	51 to 75%	51 to 75%	25 to 50%	–
COc1cnc(-c2ccccn2)nc1O [drawing 3469]	25 to 50%	76 to 100%	51 to 75%	76 to 100%	51 to 75%	51 to 75%	–	–	–	–	–	–	–
COc1cnc(-c2cnc[nH]2)nc1O [drawing 3516]	51 to 75%	51 to 75%	51 to 75%	51 to 75%	51 to 75%	51 to 75%	–	–	–	–	–	–	–
COc1ccc(CCC(=O)Nc2nc(-c3ccccn3)nc3sccc23)cn1 [drawing 3493]	25 to 50%	25 to 50%	51 to 75%	51 to 75%	76 to 100%	51 to 75%	–	–	–	–	–	–	–
O=C(Nc1nnc(-c2ccccn2)[nH]1)c1ccn(-c2ccccc2)n1 [drawing 2464]	–	–	–	–	–	–	–	–	–	–	–	–	inhibition at 20 µM (KRas wild type; [15]): 51 to 75%; inhibition at 20 µM (KRas G12C mutant; [16]): 51 to 75%; inhibition at 20 µM [1, 17]: 76 to 100%; inhibition at 20 µM (KRas G12D mutant protein; [18]): 76 to 100%
O=C(c1csc2c(O)nc(-c3ccccn3)nc12)N1CCN(c2ccccc2)CC1 [drawing 2680]	–	–	–	–	–	–	51 to 75%	25 to 50%	76 to 100%	–	–	51 to 75%	IC50 ([1]; serial dilution, read-out: KRas G12D Q61H (classes E-H, IC50)): 5 to 10 µM
OCCNc1nc(-c2ccccn2)nc2scc(-c3ccccc3)c12 [drawing 2603]	–	–	–	–	–	–	–	–	–	–	–	–	inhibition at 20 µM (KRas wild type; [15]): 1 to 25%; inhibition at 20 µM (KRas G12C mutant; [16]): 1 to 25%; inhibition at 20 µM [1, 17]: 25 to 50%; inhibition at 20 µM (KRas G12D mutant protein; [18]): 51 to 75%
COc1ccc(OCc2nc(CNCCc3nnc4n3CCC4)cs2)cc1 [drawing 2565]	–	–	–	–	–	–	–	–	–	–	–	–	inhibition at 20 µM (KRas wild type; [15]): 1 to 25%; inhibition at 20 µM (KRas G12C mutant; [16]): 25 to 50%; inhibition at 20 µM [1, 17]: 51 to 75%; inhibition at 20 µM (KRas G12D mutant protein; [18]): 51 to 75%
NC(=O)Cn1cnc2nc(-c3ccccn3)nc(N3CCOCC3)c21 [drawing 2825]	–	–	–	–	–	–	25 to 50%	25 to 50%	1 to 25%	–	–	25 to 50%	–
COCCCCNC(=O)c1csc2nc(-c3ccccn3)nc(N3CCN(C)CC3)c12 [drawing 2739]	–	–	–	–	–	–	1 to 25%	25 to 50%	25 to 50%	–	–	25 to 50%	–
O=C(Nc1nnc(-c2ccccn2)[nH]1)c1ccn(-c2cccc(Cl)c2)n1 [drawing 2559]	–	–	–	–	–	–	–	–	–	–	–	–	inhibition at 20 µM (KRas wild type; [15]): 25 to 50%; inhibition at 20 µM (KRas G12C mutant; [16]): 1 to 25%; inhibition at 20 µM [1, 17]: 76 to 100%; inhibition at 20 µM (KRas G12D mutant protein; [18]): 76 to 100%
CN(Cc1nnc(-c2ccccc2Cl)o1)Cc1ccccc1C(F)(F)F [drawing 2482]	–	–	–	–	–	–	–	–	–	–	–	–	inhibition at 20 µM (KRas wild type; [15]): 1 to 25%; inhibition at 20 µM (KRas G12C mutant; [16]): 1 to 25%; inhibition at 20 µM [1, 17]: 51 to 75%; inhibition at 20 µM (KRas G12D mutant protein; [18]): 25 to 50%
O=C(Nc1nc(-c2ccccn2)cs1)c1cccnc1 [drawing 2576]	–	–	–	–	–	–	–	–	–	–	–	–	inhibition at 20 µM (KRas wild type; [15]): 25 to 50%; inhibition at 20 µM (KRas G12C mutant; [16]): 51 to 75%; inhibition at 20 µM [1, 17]: 51 to 75%; inhibition at 20 µM (KRas G12D mutant protein; [18]): 51 to 75%
COc1cccc(C(=O)Nc2nc(-c3ccccn3)cs2)c1 [drawing 2580]	–	–	–	–	–	–	–	–	–	–	–	–	inhibition at 20 µM (KRas wild type; [15]): 25 to 50%; inhibition at 20 µM (KRas G12C mutant; [16]): 51 to 75%; inhibition at 20 µM [1, 17]: 51 to 75%; inhibition at 20 µM (KRas G12D mutant protein; [18]): 51 to 75%

Now from value to compound, other results behind:

inhibition at 20 µM (KRas wild type; [3])	inhibition at 20 µM (KRas G12C mutant; [4])	inhibition at 20 µM [1, 5]	inhibition at 20 µM [2, 6]	inhibition at 20 µM (KRas Q61H mutant; [7])	inhibition at 20 µM (KRas G12D mutant protein; [8])	inhibition at 20 µM (KRas wild type; [9])	inhibition at 20 µM (KRas G12C mutant; [10])	inhibition at 20 µM [1, 11]	inhibition at 20 µM [2, 12]	inhibition at 20 µM (KRas Q61H mutant; [13])	inhibition at 20 µM (KRas G12D mutant protein; [14])	Compound	further results
25 to 50%	25 to 50%	51 to 75%	76 to 100%	51 to 75%	76 to 100%	–	–	–	–	–	–	COc1c(O)nc(-c2ccccn2)nc1Oc1cccc(C(F)(F)F)c1 [drawing 3557]	–
–	–	–	–	–	–	51 to 75%	25 to 50%	51 to 75%	51 to 75%	51 to 75%	51 to 75%	O=S1(=O)CCN(Cc2cccc(-c3csc4c(O)nc(-c5ccccn5)nc34)c2)CC1 [drawing 2864]	–
–	–	–	–	–	–	25 to 50%	25 to 50%	25 to 50%	76 to 100%	76 to 100%	76 to 100%	COc1cccc(CN2CCN(C(=O)c3csc4c(O)nc(-c5ccccn5)nc34)CC2)c1 [drawing 2763]	–
25 to 50%	25 to 50%	51 to 75%	51 to 75%	51 to 75%	51 to 75%	–	–	–	–	–	–	Cc1nn(C(C)C)cc1-c1csc2c(O)nc(-c3ccccn3)nc12 [drawing 3506]	–
25 to 50%	51 to 75%	51 to 75%	25 to 50%	51 to 75%	51 to 75%	–	–	–	–	–	–	COc1nc(-c2ccccn2)nc2c1c(-c1ccccc1)nn2-c1ccccn1 [drawing 3540]	–
–	–	–	–	–	–	76 to 100%	25 to 50%	51 to 75%	51 to 75%	51 to 75%	51 to 75%	Cc1cnccc1-c1csc2c(O)nc(-c3ccccn3)nc12 [drawing 2888]	–
1 to 25%	25 to 50%	51 to 75%	51 to 75%	76 to 100%	1 to 25%	–	–	–	–	–	–	COc1nc(-c2ccccn2)nc2c(C3CCC3)csc12 [drawing 3480]	–
–	–	–	–	–	–	25 to 50%	25 to 50%	76 to 100%	76 to 100%	76 to 100%	51 to 75%	O=C(c1csc2c(O)nc(-c3ccccn3)nc12)N1CC2CC1CN2c1ccccc1 (centres unmarked) [drawing 2838]	–
–	–	–	–	–	–	51 to 75%	51 to 75%	51 to 75%	51 to 75%	51 to 75%	51 to 75%	O=C(O)c1cc2nc(-c3ccccn3)nc(O)c2s1 [drawing 2850]	–
–	–	–	–	–	–	51 to 75%	51 to 75%	51 to 75%	51 to 75%	51 to 75%	51 to 75%	CC(C)COc1ccc(-c2csc3c(O)nc(-c4ccccn4)nc23)cn1 [drawing 2877]	–
–	–	–	–	–	–	1 to 25%	25 to 50%	25 to 50%	25 to 50%	51 to 75%	1 to 25%	Nc1nc(-c2ccccn2)nc2ccsc12 [drawing 2834]	–
–	–	–	–	–	–	51 to 75%	51 to 75%	51 to 75%	–	–	51 to 75%	O=C(c1csc2c(O)nc(-c3ccccn3)nc12)N1CCOC(c2ccc(F)cc2)C1 (centres unmarked) [drawing 2743]	–
–	–	–	–	–	–	25 to 50%	25 to 50%	25 to 50%	–	–	25 to 50%	COc1ccc(CCNC(=O)c2csc3nc(-c4ccccn4)nc(N4CCN(C)CC4)c23)cn1	–
–	–	–	–	–	–	51 to 75%	25 to 50%	25 to 50%	–	–	51 to 75%	O=C(c1ccc(=O)[nH]n1)N1CCCc2c(O)nc(-c3ccccn3)nc21 [drawing 2646]	–
